Reference: ChEMBL document CHEMBL3885881, “DrugMatrix”

Species on record: Rattus norvegicus
Assay: DrugMatrix - Regimen: Daily Repeat
Format: toxicity, organism-based, Sprague-Dawley
Design: regimen Daily Repeat, gender Male, age 6-8 weeks
Conditions: in vivo, po, route oral GAVAGE, vehicle 100 % WATER; for ABSOLUTE BASOPHIL / ABSOLUTE EOSINOPHIL / ABSOLUTE LYMPHOCYTE / ABSOLUTE MONOCYTE / ABSOLUTE SEGMENTED NEUTROPHIL / BASOPHIL / EOSINOPHIL / ERYTHROCYTE COUNT / HEMATOCRIT / HEMOGLOBIN / LEUKOCYTE COUNT / LYMPHOCYTE / MEAN CORPUSCULAR HEMOGLOBIN / MEAN CORPUSCULAR HEMOGLOBIN CONCENTRATION / MEAN CORPUSCULAR VOLUME / MONOCYTE / NEUTROPHIL / NUCLEATED RED BLOOD CELLS / PLATELET COUNT: tissue Blood; for ALANINE AMINOTRANSFERASE / ALBUMIN / ALKALINE PHOSPHATASE / ASPARTATE AMINOTRANSFERASE / BLOOD UREA NITROGEN / CARBON DIOXIDE / CHLORIDE / CHOLESTEROL / CREATINE PHOSPHOKINASE / CREATININE / GLUCOSE / LACTATE DEHYDROGENASE / LIPASE / PHOSPHORUS / POTASSIUM / SODIUM / TOTAL BILIRUBIN / TOTAL PROTEIN / URIC ACID: tissue Plasma
[1] = 20 mg/kg, 72 h, dose level Low, time 3 day
[2] = 20 mg/kg, 120 h, dose level Low, time 5 day
[3] = 2000 mg/kg, 72 h, dose level High, time 3 day
[4] = 2000 mg/kg, 120 h, dose level High, time 5 day

## C[C@H]1O[C@H](O[C@H]2[C@H](O)[C@@H](O)[C@@H](O[C@H]3[C@H](O)[C@@H](O)C(O)O[C@@H]3CO)O[C@@H]2CO)[C@H](O)[C@@H](O)[C@@H]1N[C@H]1C=C(CO)[C@@H](O)[C@H](O)[C@H]1O (some centres not stated) [ACARBOSE]
[1]
  ABSOLUTE BASOPHIL: 0 CELLS/uL
  ABSOLUTE EOSINOPHIL: 64.67 CELLS/uL
  ABSOLUTE LYMPHOCYTE: 10120.67 CELLS/uL
  ABSOLUTE MONOCYTE: 0 CELLS/uL
  ABSOLUTE SEGMENTED NEUTROPHIL: 948 CELLS/uL
  BASOPHIL: 0%
  EOSINOPHIL: 0.67%
  ERYTHROCYTE COUNT: 5.03 x10E6/uL
  HEMATOCRIT: 31.8%
  HEMOGLOBIN: 12.87 G/DL
  LEUKOCYTE COUNT: 11.13 x10E3/uL
  LYMPHOCYTE: 91.33%
  MEAN CORPUSCULAR HEMOGLOBIN: 25.6 pg
  MEAN CORPUSCULAR HEMOGLOBIN CONCENTRATION: 40.47 G/DL
  MEAN CORPUSCULAR VOLUME: 63.17 fL
  MONOCYTE: 0%
  NEUTROPHIL: 8%
  NUCLEATED RED BLOOD CELLS: 0 /100WBC
  PLATELET COUNT: 1088.33 x10E3/uL
  ALANINE AMINOTRANSFERASE: 51.33 u/L
  ALBUMIN: 4.1 G/DL
  ALKALINE PHOSPHATASE: 389.33 u/L
  ASPARTATE AMINOTRANSFERASE: 87.67 u/L
  BLOOD UREA NITROGEN: 16.67 mg/dL
  CARBON DIOXIDE: 24.33 mmol/L
  CHLORIDE: 102.33 MEQ/L
  CHOLESTEROL: 70.33 mg/dL
  CREATINE PHOSPHOKINASE: 377 u/L
  CREATININE: 0.18 mg/dL
  GLUCOSE: 148.33 mg/dL
  LACTATE DEHYDROGENASE: 368.33 u/L
  LIPASE: 8.33 u/L
  PHOSPHORUS: 14.03 mg/dL
  POTASSIUM: 6.96 MEQ/L
  SODIUM: 145.97 MEQ/L
  TOTAL BILIRUBIN: 0.23 mg/dL
  TOTAL PROTEIN: 5.73 G/DL
  URIC ACID: 1.43 mg/dL
[2]
  ABSOLUTE BASOPHIL: 0 CELLS/uL
  ABSOLUTE EOSINOPHIL: 33.67 CELLS/uL
  ABSOLUTE LYMPHOCYTE: 11112 CELLS/uL
  ABSOLUTE MONOCYTE: 101.33 CELLS/uL
  ABSOLUTE SEGMENTED NEUTROPHIL: 919.67 CELLS/uL
  BASOPHIL: 0%
  EOSINOPHIL: 0.33%
  ERYTHROCYTE COUNT: 5.14 x10E6/uL
  HEMATOCRIT: 33.7%
  HEMOGLOBIN: 13.33 G/DL
  LEUKOCYTE COUNT: 12.17 x10E3/uL
  LYMPHOCYTE: 91%
  MEAN CORPUSCULAR HEMOGLOBIN: 26 pg
  MEAN CORPUSCULAR HEMOGLOBIN CONCENTRATION: 39.57 G/DL
  MEAN CORPUSCULAR VOLUME: 65.63 fL
  MONOCYTE: 1%
  NEUTROPHIL: 7.67%
  NUCLEATED RED BLOOD CELLS: 1 /100WBC
  PLATELET COUNT: 1353.33 x10E3/uL
  ALANINE AMINOTRANSFERASE: 52.33 u/L
  ALBUMIN: 4.4 G/DL
  ALKALINE PHOSPHATASE: 361.67 u/L
  ASPARTATE AMINOTRANSFERASE: 74.67 u/L
  BLOOD UREA NITROGEN: 17.33 mg/dL
  CARBON DIOXIDE: 27.33 mmol/L
  CHLORIDE: 101.33 MEQ/L
  CHOLESTEROL: 74 mg/dL
  CREATINE PHOSPHOKINASE: 186 u/L
  CREATININE: 0.17 mg/dL
  GLUCOSE: 180.33 mg/dL
  LACTATE DEHYDROGENASE: 91.33 u/L
  LIPASE: 8.67 u/L
  PHOSPHORUS: 13.03 mg/dL
  POTASSIUM: 6.7 MEQ/L
  SODIUM: 145.5 MEQ/L
  TOTAL BILIRUBIN: 0.2 mg/dL
  TOTAL PROTEIN: 6.1 G/DL
  URIC ACID: 1.6 mg/dL
[3]
  ABSOLUTE BASOPHIL: 0 CELLS/uL
  ABSOLUTE EOSINOPHIL: 47 CELLS/uL
  ABSOLUTE LYMPHOCYTE: 15977.33 CELLS/uL
  ABSOLUTE MONOCYTE: 106.67 CELLS/uL
  ABSOLUTE SEGMENTED NEUTROPHIL: 835.67 CELLS/uL
  BASOPHIL: 0%
  EOSINOPHIL: 0.33%
  ERYTHROCYTE COUNT: 5.96 x10E6/uL
  HEMATOCRIT: 39.13%
  HEMOGLOBIN: 15.37 G/DL
  LEUKOCYTE COUNT: 16.97 x10E3/uL
  LYMPHOCYTE: 94%
  MEAN CORPUSCULAR HEMOGLOBIN: 25.73 pg
  MEAN CORPUSCULAR HEMOGLOBIN CONCENTRATION: 39.27 G/DL
  MEAN CORPUSCULAR VOLUME: 65.6 fL
  MONOCYTE: 0.67%
  NEUTROPHIL: 5%
  NUCLEATED RED BLOOD CELLS: 1 /100WBC
  PLATELET COUNT: 1523.33 x10E3/uL
  ALANINE AMINOTRANSFERASE: 43 u/L
  ALBUMIN: 4.63 G/DL
  ALKALINE PHOSPHATASE: 324.67 u/L
  ASPARTATE AMINOTRANSFERASE: 88 u/L
  BLOOD UREA NITROGEN: 20.33 mg/dL
  CARBON DIOXIDE: 28.33 mmol/L
  CHLORIDE: 105.67 MEQ/L
  CHOLESTEROL: 86 mg/dL
  CREATINE PHOSPHOKINASE: 443.33 u/L
  CREATININE: 0.21 mg/dL
  GLUCOSE: 160.67 mg/dL
  LACTATE DEHYDROGENASE: 447.33 u/L
  LIPASE: 10 u/L
  PHOSPHORUS: 14.07 mg/dL
  POTASSIUM: 7.15 MEQ/L
  SODIUM: 150.93 MEQ/L
  TOTAL BILIRUBIN: 0.1 mg/dL
  TOTAL PROTEIN: 6.8 G/DL
  URIC ACID: 2.5 mg/dL
[4]
  ABSOLUTE BASOPHIL: 0 CELLS/uL
  ABSOLUTE EOSINOPHIL: 0 CELLS/uL
  ABSOLUTE LYMPHOCYTE: 17167.33 CELLS/uL
  ABSOLUTE MONOCYTE: 176.67 CELLS/uL
  ABSOLUTE SEGMENTED NEUTROPHIL: 1189.33 CELLS/uL
  BASOPHIL: 0%
  EOSINOPHIL: 0%
  ERYTHROCYTE COUNT: 5.82 x10E6/uL
  HEMATOCRIT: 35.33%
  HEMOGLOBIN: 14.37 G/DL
  LEUKOCYTE COUNT: 18.53 x10E3/uL
  LYMPHOCYTE: 92.33%
  MEAN CORPUSCULAR HEMOGLOBIN: 24.67 pg
  MEAN CORPUSCULAR HEMOGLOBIN CONCENTRATION: 40.67 G/DL
  MEAN CORPUSCULAR VOLUME: 60.77 fL
  MONOCYTE: 1%
  NEUTROPHIL: 6.67%
  NUCLEATED RED BLOOD CELLS: 0 /100WBC
  PLATELET COUNT: 1249.33 x10E3/uL
  ALANINE AMINOTRANSFERASE: 68 u/L
  ALBUMIN: 4.23 G/DL
  ALKALINE PHOSPHATASE: 385.33 u/L
  ASPARTATE AMINOTRANSFERASE: 101.67 u/L
  BLOOD UREA NITROGEN: 21.67 mg/dL
  CARBON DIOXIDE: 33.67 mmol/L
  CHLORIDE: 102.33 MEQ/L
  CHOLESTEROL: 76.67 mg/dL
  CREATINE PHOSPHOKINASE: 356 u/L
  CREATININE: 0.23 mg/dL
  GLUCOSE: 153.67 mg/dL
  LACTATE DEHYDROGENASE: 345 u/L
  LIPASE: 10.33 u/L
  PHOSPHORUS: 12.8 mg/dL
  POTASSIUM: 7.54 MEQ/L
  SODIUM: 145.93 MEQ/L
  TOTAL BILIRUBIN: 0.1 mg/dL
  TOTAL PROTEIN: 5.93 G/DL
  URIC ACID: 1.6 mg/dL
